Tests used:
Format in all cases: cell-based
human OCT2 [1] = target: T1, human OCT2 (Homo sapiens, UniProt O15244); assay: competition of [3H]-histamine uptake in transfected HEK293T cells; conditions: 2.5 uM [3H]-histamine, 30 min, 37 C, pH 7.4; competitor concentration for OCT2 not given
T1 construct: gene SLC22A2
T1 sequence (O15244 1-555): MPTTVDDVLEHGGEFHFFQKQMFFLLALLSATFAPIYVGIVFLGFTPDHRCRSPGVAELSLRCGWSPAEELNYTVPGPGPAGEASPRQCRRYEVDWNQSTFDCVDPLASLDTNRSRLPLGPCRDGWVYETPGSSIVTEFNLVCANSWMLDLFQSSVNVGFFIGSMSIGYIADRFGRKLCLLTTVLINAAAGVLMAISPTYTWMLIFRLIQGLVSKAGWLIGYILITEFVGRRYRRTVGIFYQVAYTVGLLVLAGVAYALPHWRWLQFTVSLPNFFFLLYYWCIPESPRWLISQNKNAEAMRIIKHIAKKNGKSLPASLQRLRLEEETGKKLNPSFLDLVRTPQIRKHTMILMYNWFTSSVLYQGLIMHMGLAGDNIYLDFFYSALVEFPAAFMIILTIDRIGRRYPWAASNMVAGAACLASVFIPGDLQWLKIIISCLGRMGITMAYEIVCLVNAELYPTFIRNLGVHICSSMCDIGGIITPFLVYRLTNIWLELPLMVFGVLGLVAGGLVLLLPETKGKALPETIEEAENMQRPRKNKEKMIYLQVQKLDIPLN

human OCT2 [2] = target: T1, human OCT2; assay: [3H]-histamine uptake in transfected HEK293T cells; conditions: labelled compound; 2.5 uM, 30 min, 37 C, pH 7.4, ECF buffer with 120 mM NaCl
HisT (CG1358) = target: T2, HisT (CG1358) (Drosophila melanogaster, UniProt A0A0B4JD50); assay: [3H]-histamine uptake in transfected HEK293T cells; conditions: labelled compound; 2.5 uM, 30 min, 37 C, pH 7.4, ECF buffer with 120 mM NaCl
T2 sequence (A0A0B4JD50 1-482): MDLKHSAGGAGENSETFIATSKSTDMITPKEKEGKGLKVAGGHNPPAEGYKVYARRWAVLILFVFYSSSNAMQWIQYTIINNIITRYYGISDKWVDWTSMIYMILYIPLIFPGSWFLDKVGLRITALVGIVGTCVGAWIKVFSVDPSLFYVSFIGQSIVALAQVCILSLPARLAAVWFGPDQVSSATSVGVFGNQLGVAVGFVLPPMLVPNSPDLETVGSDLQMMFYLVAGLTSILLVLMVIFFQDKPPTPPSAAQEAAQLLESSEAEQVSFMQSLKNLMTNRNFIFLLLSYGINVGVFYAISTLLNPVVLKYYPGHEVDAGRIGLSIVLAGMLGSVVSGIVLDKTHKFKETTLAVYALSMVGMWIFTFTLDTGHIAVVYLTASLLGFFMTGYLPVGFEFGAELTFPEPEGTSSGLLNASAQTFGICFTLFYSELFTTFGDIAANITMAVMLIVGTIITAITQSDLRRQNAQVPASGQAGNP

| Compound | inhibition of [3H]-histamine uptake (human OCT2 [1]) | [3H]-histamine uptake in transfected HEK293T cells (human OCT2 [2]) | [3H]-histamine uptake in transfected HEK293T cells (HisT (CG1358)) |
| --- | --- | --- | --- |
| NCCC(=O)NCCc1c[nH]cn1 [carcinine] | OCT2-mediated [^3H]-histamine uptake was completely blocked by dopamine, serotonin, and carcinine |  |  |
| NCCc1ccc(O)c(O)c1 [dopamine] | OCT2-mediated [^3H]-histamine uptake was completely blocked by dopamine, serotonin, and carcinine |  |  |
| NCCc1c[nH]cn1 [histamine] |  | OCT2), which mediates the low-affinity transport of some monoamine neurotransmitters including histamine | is the only transporter exhibiting histamine uptake activity in vitro |
| NCCc1c[nH]c2ccc(O)cc12 [serotonin] | OCT2-mediated [^3H]-histamine uptake was completely blocked by dopamine, serotonin, and carcinine |  |  |

Reference: PMC9604546, “Drosophila HisT is a specific histamine transporter that contributes to histamine recycling in glia” (Science Advances, 2022)
